Experimental data taken from US11357246B2, “High intensity sweeteners” (Firmenich Incorporated, priority 2015, dated 2022).

Tests used:
[1] = Paired comparison testing (2-AFC) of sweet intensity versus 300 ppm Rebaudioside A by trained panelists; format: in vivo; conditions: for Sample selected as sweeter by panelists, Total: LSB pH ~7.1; for Sweetness compared with 300 ppm Rebaudioside A (2-AFC): 0.25 mL sample, LSB pH ~7.1, 0% ethanol
Procedure: Paired comparison tests (2-Alternative Forced Choice difference tests, i.e., 2-AFC) were used to determine sweet intensity equivalence between samples prepared with Rebaudioside A and the test sweet compound. Trained external panelists were used for the taste tests.
2-AFC tests, compound solutions were tested against 300 ppm Rebaudioside A to determine how they matched in sweet intensity. Panelists tasted both samples and indicated which sample was sweeter in each pair. Panelists rinsed their mouths with water prior to starting any test. Samples were presented to panelists in randomized, counterbalanced pairs and were labeled with 3-digit blinding codes. Panelists rinsed with water between samples as well as between pairs. There was a 90 second delay to clear the mouth of any tastes after each pair evaluation. Three replicates of each test were performed.
The 2-AFC data was analyzed to determine significant differences between 300 ppm Rebaudioside A and compound solutions using a probability table for a two-tailed test (alpha=0.05).
The paired comparison testing was performed using a 0.25 mL sample size, and all samples were made with Low Sodium Buffer (LSB) pH ˜7.1 and contain 0% ethanol.

hT1R2/hT1R3 = target: T1, hT1R2/hT1R3 (Homo sapiens, UniProt Q7RTX0+Q8TE23); assay: HTS-Sweet: FLIPR calcium fluorometric imaging assay in cells stably expressing the human sweet taste receptor and a promiscuous G protein; format: cell-based; conditions: FLIPR, Fluo-4AM, 10 concentrations 0.4 μM to 200 μM in duplicates; read-out: Compound EC50s for hT1R2/hT1R3
T1 construct: expressed in transfected cells; parental cells lack the receptor
T1 sequence (Q8TE23 20-839): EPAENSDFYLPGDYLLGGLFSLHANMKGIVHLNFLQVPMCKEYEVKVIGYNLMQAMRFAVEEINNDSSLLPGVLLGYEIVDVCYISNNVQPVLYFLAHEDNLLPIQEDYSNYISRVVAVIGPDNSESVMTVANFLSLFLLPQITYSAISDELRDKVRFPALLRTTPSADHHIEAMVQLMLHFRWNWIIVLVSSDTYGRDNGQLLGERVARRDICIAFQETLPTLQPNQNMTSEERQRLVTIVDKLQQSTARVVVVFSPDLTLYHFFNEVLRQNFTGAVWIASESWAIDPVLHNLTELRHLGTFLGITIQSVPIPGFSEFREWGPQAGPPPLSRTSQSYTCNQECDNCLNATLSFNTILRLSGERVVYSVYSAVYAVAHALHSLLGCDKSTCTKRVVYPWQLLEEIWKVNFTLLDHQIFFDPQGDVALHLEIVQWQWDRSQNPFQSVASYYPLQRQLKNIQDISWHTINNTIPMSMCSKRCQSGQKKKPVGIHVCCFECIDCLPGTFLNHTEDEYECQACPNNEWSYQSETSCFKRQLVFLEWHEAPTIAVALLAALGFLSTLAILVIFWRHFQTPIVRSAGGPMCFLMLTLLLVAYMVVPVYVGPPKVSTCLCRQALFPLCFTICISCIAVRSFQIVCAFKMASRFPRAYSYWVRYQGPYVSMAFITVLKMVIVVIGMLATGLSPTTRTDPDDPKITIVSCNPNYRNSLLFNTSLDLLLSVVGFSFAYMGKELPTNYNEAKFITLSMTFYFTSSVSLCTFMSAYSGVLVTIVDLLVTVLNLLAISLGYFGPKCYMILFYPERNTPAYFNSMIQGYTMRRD
T1 sequence (Q7RTX0 21-852): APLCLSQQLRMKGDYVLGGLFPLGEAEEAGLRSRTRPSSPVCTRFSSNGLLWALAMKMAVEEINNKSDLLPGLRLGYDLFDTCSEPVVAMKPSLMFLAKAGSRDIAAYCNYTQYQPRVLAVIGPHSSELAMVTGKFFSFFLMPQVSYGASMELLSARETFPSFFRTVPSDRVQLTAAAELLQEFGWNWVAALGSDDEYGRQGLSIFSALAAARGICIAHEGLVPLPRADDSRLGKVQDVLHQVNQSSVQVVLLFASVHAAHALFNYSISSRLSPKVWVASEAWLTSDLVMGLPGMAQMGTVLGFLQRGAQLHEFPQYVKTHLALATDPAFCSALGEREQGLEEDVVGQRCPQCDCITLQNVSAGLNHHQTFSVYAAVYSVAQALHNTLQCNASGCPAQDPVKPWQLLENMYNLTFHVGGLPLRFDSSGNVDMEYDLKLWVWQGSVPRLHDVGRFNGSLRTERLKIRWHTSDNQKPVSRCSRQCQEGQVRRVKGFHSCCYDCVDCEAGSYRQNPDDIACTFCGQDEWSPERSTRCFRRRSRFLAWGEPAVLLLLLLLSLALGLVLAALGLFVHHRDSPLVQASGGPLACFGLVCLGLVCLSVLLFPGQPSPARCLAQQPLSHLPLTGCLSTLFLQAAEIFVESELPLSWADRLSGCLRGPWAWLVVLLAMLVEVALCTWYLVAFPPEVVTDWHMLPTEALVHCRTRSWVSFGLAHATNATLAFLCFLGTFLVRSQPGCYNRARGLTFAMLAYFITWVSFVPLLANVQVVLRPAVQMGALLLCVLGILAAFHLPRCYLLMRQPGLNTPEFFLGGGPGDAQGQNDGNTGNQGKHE
Procedure: Compound activity (EC50) was determined using an automated fluorometric imaging assay on a FLIPR instrument (Fluorometric […] Plate Reader, Molecular Devices, Sunnyvale, Calif.). Cell stably expressing the human sweet taste receptor and a promiscuous G protein were seeded into 384-well plates (at approximately 40,000 cells per well). Cells were grown for 24 hours at 37° C. Cells were then loaded with the calcium dye Fluo-4AM (Molecular Probes, Eugene, Oreg.), 4 μM in a phosphate buffered saline (D-PBS) (Invitrogen, Carlsbad, Calif.), for 1 hour at room temperature. After replacement with 25 μl D-PBS, stimulation was performed in the FLIPR instrument and at room temperature by the addition of 25 μl D-PBS supplemented with different stimuli at concentrations corresponding to twice the desired final level. Receptor activity was quantified by determining the maximal fluorescence increases (using a 480 nm excitation and 535 nm emission) after normalization to basal fluorescence intensity measured before stimulation.
For dose-responses analysis, stimuli were presented in duplicates at 10 different concentrations ranging from 0.4 μM to 200 μM. EC50 s were determined using a non-linear regression algorithm, where the Hill slope, bottom asymptotes and top asymptotes were allowed to vary.

[2] = 300 ppm Compound 1 vs 300 ppm Rebaudioside A, n = 45 (15 panelists × 3 reps), p-value 0.072
[3] = 250 ppm Compound 18 vs 300 ppm Rebaudioside A, n = 36 (12 panelists × 3 reps), p-value 0.681
[4] = 300 ppm Compound 18 vs 300 ppm Rebaudioside A, n = 42 (14 panelists × 3 reps), p-value 0.044

Row | Compound | Sample selected as sweeter by panelists, Total [1, 2] | Sweetness compared with 300 ppm Rebaudioside A (2-AFC) ([1]; test compound at 300 ppm) | Sample selected as sweeter by panelists, Total [1, 3] | Sample selected as sweeter by panelists, Total [1, 4] | Sweetness compared with 300 ppm Rebaudioside A (2-AFC) ([1]; test compound at 250 ppm) | EC50 (hT1R2/hT1R3) [µM]
1 | C[C@H](CC[C@@H](O[C@@H]1O[C@H](CO)[C@@H](O)[C@H](O)[C@H]1O[C@@H]1O[C@H](CO)[C@@H](O)[C@H](O)[C@H]1O)C(C)(C)O)C1CC[C@@]2(C)C3CC=C4C(CC[C@H](O[C@@H]5O[C@H](CO)[C@@H](O[C@@H]6O[C@H](CO)[C@@H](O)[C@H](O)[C@H]6O)[C@H](O)[C@H]5O)C4(C)C)[C@]3(C)[C@H](O)C[C@]12C (stereo partly shown) [Compound 1] | 16 | not significantly different in sweetness | – | – | – | –
2 | C[C@H](CC[C@@H](O[C@@H]1O[C@H](CO)[C@@H](O)[C@H](O)[C@H]1O[C@@H]1O[C@H](CO)[C@@H](O)[C@H](O[C@@H]2O[C@H](CO)[C@@H](O)[C@H](O)[C@H]2O)[C@H]1O)C(C)(C)O)C1CC[C@@]2(C)C3CC=C4C(CC[C@H](O[C@@H]5O[C@H](CO)[C@@H](O)[C@H](O[C@@H]6O[C@H](CO)[C@@H](O)[C@H](O)[C@H]6O)[C@H]5O)C4(C)C)[C@]3(C)[C@H](O)C[C@]12C (stereo partly shown) [Compound 18] | – | significantly sweeter | 20 | 28 | not significantly different in sweetness | –
3 | C[C@H](CC[C@@H](O[C@@H]1O[C@H](CO)[C@@H](O[C@@H]2O[C@H](CO)[C@@H](O)[C@H](O)[C@H]2O)[C@H](O)[C@H]1O[C@@H]1O[C@H](CO)[C@@H](O)[C@H](O)[C@H]1O)C(C)(C)O)C1CC[C@@]2(C)C3CC=C4C(CC[C@H](O)C4(C)C)[C@]3(C)[C@H](O)C[C@]12C (stereo partly shown) [Compound 35] | – | – | – | – | – | 17 to 30
4 | C=C1C[C@@]23CC[C@H]4[C@@](C)(CCC[C@@]4(C)C(=O)O[C@@H]4O[C@H](CO)[C@@H](O)[C@H](O)[C@H]4O)[C@@H]2CC[C@]1(O[C@@H]1O[C@H](CO)[C@@H](O)[C@H](O[C@@H]2O[C@H](CO)[C@@H](O)[C@H](O)[C@H]2O)[C@H]1O[C@@H]1O[C@H](CO)[C@@H](O)[C@H](O)[C@H]1O)C3 [Rebaudioside A, reference compound] | 29 | – | 16 | 14 | – | –
